Data reported in patent publication US20220249523A1, “BENZOAZEPINE COMPOUND-CONTAINING FREEZE-DRIED COMPOSITION” (OTSUKA PHARMACEUTICAL CO., LTD., priority 2019, published 2022).

Experiments:
Format in all cases: physicochemical
[1] = Stability of metal salts of compound (1) in a solid state; settings: compared to compound (1)
Protocol: (§1) The stability of these metal salts in a solid state was analyzed. […] Additionally, the solubility in water was analyzed.

[2] = Solubility in water of compound (1) and its metal salts
Protocol: as §1

[3] = Storage stability of freeze-dried compositions: amount of tolvaptan produced (HPLC area normalization); settings: for Amount of tolvaptan produced (%): freeze-dried; for Amount of tolvaptan produced (%) / Amount of tolvaptan produced: 60° C. for 1 month; for Amount of tolvaptan produced: freeze-dried composition, compound (1) 0.1 w/v %
Protocol: Aqueous solutions containing compound (1) (0.1 w/v %), mannitol (4 w/v %), and sodium hydroxide (q.s.) were prepared (pH 7, 7.5, 8, 8.5, or 9) using a 20 mM disodium hydrogen phosphate buffer.
The aqueous solutions were each placed in a 2-mL glass vial, and frozen to a temperature of −40° C. or lower. Thereafter, the vials were depressurized to vacuum, and water was removed during freeze-drying to thus obtain freeze-dried compositions. The resulting products were stored at 40° C. for 3 months, or at 60° C. for 1 month; and then reconstituted with the same amount of water as that removed by freeze-drying, to return the products back to aqueous solutions. The amount of total degradation products or tolvaptan produced (%) in each of the obtained aqueous solutions was determined by the HPLC area normalization method.
Freeze-dried compositions were prepared in the same manner as in the “Analysis 1: Stability of Freeze-Dried Formulation of Compound (1)” section above using additives other than mannitol, i.e., NaCl, sorbitol, sucrose, maltose, trehalose, or lactose. Here, the pH of the aqueous solutions before preparing freeze-dried compositions was adjusted to 8.5. However, for lactose, the pH of the aqueous solution before preparing a freeze-dried composition was adjusted to 9.0 with a 24 mM sodium hydrogen carbonate buffer.
After the obtained freeze-dried compositions were stored at 60° C. for 1 month, the amount of tolvaptan produced was determined by the HPLC area normalization method, and the stability of compound (1) in each composition was analyzed. […] The reduction was particularly remarkable with sucrose, maltose, and lactose. Additionally, after storage at 60° C. for 1 week of the aqueous solutions before preparing freeze-dried compositions, the stability of compound (1) in each composition was analyzed. […] The results confirmed that the use of maltose or lactose increased the amount of tolvaptan produced (%).
Aqueous solutions with a pH of 7.5, 8, 8.5, or 9 were prepared in the same manner as in the “Analysis 2: Stability of Freeze-Dried Formulation of Compound (1)” section above, except that compound A at a concentration of 0.541 w/v % and sucrose at a concentration of 7.5 w/v % were used. The resulting aqueous solutions were freeze-dried to obtain freeze-dried compositions. The freeze-dried compositions were stored at 60° C. for 1 month. Thereafter, the amount of tolvaptan produced (%) was determined by the HPLC area normalization method.
An aqueous solution with a pH of 8.5 was prepared in the same manner as in the “Analysis 1: Stability of Freeze-Dried Formulation of Compound A” section above, using potassium phosphate instead of sodium phosphate as a buffering agent. Further, a freeze-dried composition was prepared to analyze the stability of compound A in the freeze-dried composition (after storage at 60° C. for 1 month). The amount of tolvaptan produced (%) was 0.07%, which was the same as when sodium phosphate was used.
Aqueous solutions with a pH of 8.0 were prepared in the same manner as in the “Analysis 1: Stability of Freeze-Dried Formulation of Compound A” section above, such that the sucrose concentration was 1%, 2%, 4%, or 7.5%. Further, the freeze-dried compositions were prepared to analyze the stability of compound A in the freeze-dried compositions (after storage at 60° C. for 1 month). The amount of tolvaptan produced (%) was 0.25% when the sucrose concentration was 1%, 0.12% when the sucrose concentration was 2%, 0.08% when the sucrose concentration was 4%, and 0.10% when the sucrose concentration was 7.5%.
In addition to the aqueous solution containing sodium phosphate at a concentration of 20 mM and having a pH of 8.5, aqueous solutions containing sodium phosphate at a concentration of 10 mM or 50 mM were also prepared as in the same manner as the “Analysis 1: Stability of Freeze-Dried Formulation of Compound A” section above. […]

[4] = pH at reconstitution with water of stored freeze-dried compositions; settings: initial pH 8.5
Protocol: In addition to the aqueous solution containing sodium phosphate at a concentration of 20 mM and having a pH of 8.5, aqueous solutions containing sodium phosphate at a concentration of 10 mM or 50 mM were also prepared as in the same manner as the “Analysis 1: Stability of Freeze-Dried Formulation of Compound A” section above. Further, freeze-dried compositions were prepared to analyze the stability of compound A in the freeze-dried compositions (after storage at 60° C. for 1 month, or at 40° C. for 3 months). Thereafter, the pH at the time of reconstitution with water was analyzed.

[5] = Appearance on reconstitution of freeze-dried compositions with water (foaming, cloudiness); settings: freeze-dried compositions with a sucrose concentration of 4% or 7.5%, pH 8.0
[6] = Stability of phosphate ester bond in aqueous solution on high-pressure steam sterilization (HPLC area normalization); settings: 0.1 w/v % aqueous solution, 121° C., 20 minutes
Protocol: Aqueous solutions containing compound (1) at a concentration of 0.1 w/v % were prepared, and the stability of the aqueous solutions when subjected to high-pressure steam sterilization (121° C., 20 minutes) was analyzed. The aqueous solutions were prepared using a 100 mM sodium phosphate buffer or a 100 mM Tris buffer. The pH of the aqueous solutions prepared using each of the buffers was adjusted with sodium hydroxide to prepare solutions with different pHs. After the treatment, the purity of compound (1) and the amount of tolvaptan produced were determined by the HPLC area normalization method.

[O-][n+]1ccccc1[S-].[O-][n+]1ccccc1[S-].[Zn+2] [Zinc salt]
Stability in a solid state [1]: remarkably improved stability
Solubility in water [2]: 0.003 w/v %

Cc1ccccc1C(=O)Nc1ccc(C(=O)N2CCCC(OP(=O)([O-])[O-])c3cc(Cl)ccc32)c(C)c1.[Na+].[Na+] (stereo not drawn) [compound A]
Amount of tolvaptan produced (%) ([3]; compound A 0.541 w/v %, sucrose 7.5 w/v %, 20 mM sodium phosphate, pH 7.5): 0.22%
Amount of tolvaptan produced (%) ([3]; compound A 0.541 w/v %, sucrose 7.5 w/v %, 20 mM sodium phosphate, pH 8): 0.10%
Amount of tolvaptan produced (%) ([3]; compound A 0.541 w/v %, sucrose 7.5 w/v %, 20 mM sodium phosphate, pH 8.5): 0.07%
Amount of tolvaptan produced (%) ([3]; compound A 0.541 w/v %, sucrose 7.5 w/v %, 20 mM sodium phosphate, pH 9): below the detection limit
Amount of tolvaptan produced (%) ([3]; compound A, pH 8.0, sucrose concentration 1%): 0.25%
Amount of tolvaptan produced (%) ([3]; compound A, pH 8.0, sucrose concentration 2%): 0.12%
Amount of tolvaptan produced (%) ([3]; compound A, pH 8.0, sucrose concentration 4%): 0.08%
Amount of tolvaptan produced (%) ([3]; compound A, sucrose 7.5 w/v %, pH 8.5, sodium phosphate 10 mM): 0.07%
Amount of tolvaptan produced (%) ([3]; compound A, sucrose 7.5 w/v %, pH 8.5, sodium phosphate 50 mM): below the detection limit
Amount of tolvaptan produced (%) ([3]; compound A, sucrose 7.5 w/v %, potassium phosphate instead of sodium phosphate, pH 8.5): 0.07%
Stability in a solid state [1]: remarkably improved stability
pH at 40° C. 3 months later ([4]; sodium phosphate 10 mM): 8.16
pH at 60° C. 1 month later ([4]; sodium phosphate 10 mM): 8.24
pH at 40° C. 3 months later ([4]; sodium phosphate 20 mM): 8.24
pH at 60° C. 1 month later ([4]; sodium phosphate 20 mM): 8.34
pH at 40° C. 3 months later ([4]; sodium phosphate 50 mM): 8.30
pH at 60° C. 1 month later ([4]; sodium phosphate 50 mM): 8.36
Solubility in water [2]: ≥ 4 w/v %
Appearance when reconstituted with water [5]: foaming and slight cloudiness were observed

Cc1ccccc1C(=O)Nc1ccc(C(=O)N2CCCC(OP(=O)(O)O)c3cc(Cl)ccc32)c(C)c1 (stereo not drawn) [compound (1)]
Amount of tolvaptan produced ([3]; mannitol 4 w/v %, solution pH 8.5): 1.45%
Amount of tolvaptan produced ([3]; mannitol 4 w/v %, solution pH 9): 0.9%
Stability in freeze-dried compositions ([3]; mannitol 4 w/v %, solutions with a pH exceeding 8, storage at 60° C.): relatively stable
Stability of phosphate ester bond on high-pressure steam sterilization ([6]; sodium phosphate buffer having a pH of 7.5 or more): highly stable
Stability of phosphate ester bond on high-pressure steam sterilization ([6]; tolvaptan formed as a precipitate): hydrolyzed
Solubility in water [2]: 0.14 w/v %
